According to PubChem BioAssay (NCI):
Where “and” joins values, the source holds several entries; their conditions need not be identical. Equal entries are not always repeated.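 All cell lines were grown in 96-well plates and treated with compound for 48 hours. GI50 is the concentration that inhibits growth by half. At the TGI there is no net growth.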 Where a SMILES comes first, the peptide text is derived from it. The star is where a group is joined. Cbz = O=C(OCc1ccccc1)*

Experiments:
Assay in all cases: NCI tumour cell line growth inhibition, 48 h
[1] = tested on: 786-0 renal
[2] = tested on: HCT-116 colon
[3] = tested on: HOP-62 NSCLC
[4] = tested on: IGROV1 ovarian
[5] = tested on: MDA-N
[6] = tested on: OVCAR-5 ovarian
[7] = tested on: SK-MEL-2 melanoma
[8] = tested on: NCI/ADR-RES ovarian
[9] = tested on: RXF 393 renal

| SMILES | TGI [1] | TGI [2] | TGI [3] | TGI [4] | TGI [5] | TGI [6] | TGI [7] | TGI [8] | TGI [9] | GI50 [2] | GI50 [3] | GI50 [4] | GI50 [8] | GI50 [6] | GI50 [9] | GI50 [7] |
| --- | --- | --- | --- | --- | --- | --- | --- | --- | --- | --- | --- | --- | --- | --- | --- | --- |
| CCOC(=O)CCC(NC(=O)C(CC(=O)OC)NC(=O)OCc1ccccc1)C(=O)NC(CC(=O)OC)C(=O)NC(CCC(=O)OCC)C(=O)NC(CC(=O)OC)C(=O)NC(CCC(=O)OCC)C(=O)NC(CC(=O)OCC)C(=O)OCC (stereo not given) (Cbz-D(OMe)E(OEt)D(OMe)E(OEt)D(OMe)E(OEt)D(OEt)-OEt; configuration not given here) | > 100 µM | > 100 µM | > 100 µM | > 100 µM | > 100 µM | > 100 µM | > 100 µM |  |  |  |  |  |  |  |  |  |
| O=[N+]([O-])C(/C(Cl)=C(/Cl)N1CCOCC1)=C1\Nc2ccccc2O1 | > 100 µM | > 100 µM | > 100 µM |  |  | > 100 µM | > 100 µM | > 100 µM |  |  |  |  |  |  |  |  |
| CCCCOc1ccc(/C=C/C2=[N+](CCO)CCO2)cc1 | > 100 µM | > 100 µM | > 100 µM | > 100 µM | > 100 µM | > 100 µM | > 100 µM | > 100 µM | 63.3 µM |  |  |  |  |  |  |  |
| COc1ccc(Nc2nc3ccccc3nc2-c2cccs2)cc1OC | > 10 µM | > 10 µM | > 10 µM | > 10 µM | > 10 µM | > 10 µM | > 10 µM | > 10 µM | > 10 µM |  |  |  |  |  |  |  |
| Cc1cc2c(cc1Cl)SSc1cc(Cl)c(C)cc1S(=O)(=O)Nc1nc(N)nn1C(O)n1nc(N)nc1NS2(=O)=O | > 10 µM | > 10 µM | > 10 µM | > 10 µM | > 10 µM | > 10 µM | > 10 µM | > 10 µM | > 10 µM |  |  |  |  |  |  |  |
| CSC(=Nc1ccccc1)c1c(C)[nH]n(-c2ccccc2)c1=O | > 100 µM | > 100 µM |  |  | > 100 µM | > 100 µM | > 100 µM | > 100 µM | > 100 µM |  |  |  |  |  |  |  |
| CC1=NN(c2ccccc2)C(=O)/C1=C1\SC(c2ccccc2)(c2ccccc2)c2ccccc21 | > 100 µM | > 100 µM | > 100 µM | > 100 µM | > 100 µM | > 100 µM | > 100 µM | > 100 µM | > 100 µM |  |  |  |  |  |  |  |
| CCOC(=O)c1nc(SC)sc1NC(=O)c1ccc(OC)cc1 | > 100 µM | 48.2 µM | > 100 µM | > 100 µM | > 100 µM | > 100 µM | > 100 µM | > 100 µM | > 100 µM |  |  |  |  |  |  |  |
| COc1cc2ncnc(Nc3cccc(Br)c3)c2cc1OC | 4.8 µM | 39.3 µM | > 41.2 µM | 29.6 µM | > 42.9 µM | 25 µM | 12.9 µM | 23.9 µM | 53 µM |  |  |  |  |  |  |  |
| Cc1cc(C)c2c(-c3ccccc3)cc(=O)[nH]c2c1 | > 100 µM | > 100 µM | > 100 µM | > 100 µM | > 100 µM | > 100 µM | > 100 µM | > 100 µM | > 100 µM |  |  |  |  |  |  |  |
| Fc1ccc(/C=C2\COCC3=C2NC(=S)NC3c2ccc(F)cc2)cc1 (stereo not given) | 34.4 µM | 32.1 µM | 31.7 µM | 76.3 µM | 34.2 µM | 47 µM | 28.6 µM | 40 µM | 30.4 µM |  |  |  |  |  |  |  |
| Cc1cc2c3c(c1)S(=O)(=O)c1cc(Cl)ccc1N3CCC2 | > 100 µM | > 100 µM | > 100 µM | > 100 µM | > 100 µM | > 100 µM | > 100 µM | > 100 µM | > 100 µM |  |  |  |  |  |  |  |
| COc1ccccc1C1C(C#N)=C(N)SC(N)=C1C#N |  | > 100 µM | > 100 µM | 70 µM |  | > 100 µM | > 100 µM | > 100 µM | > 100 µM | 43.8 µM | > 100 µM | 11.1 µM | 43.9 µM | > 100 µM | > 100 µM | > 100 µM |
| COC(=O)/C(=C(/C)c1ccco1)P(=O)(OC)OC | > 100 µM | > 100 µM | > 100 µM | > 100 µM |  | > 100 µM | > 100 µM | > 100 µM | > 100 µM |  |  |  |  |  |  |  |
| NCC(=O)N[C@H]1c2ccsc2/C(=N/O)[C@H]1O |  | > 100 µM | > 100 µM | > 100 µM | > 100 µM | > 100 µM | > 100 µM | > 100 µM | > 100 µM |  |  |  |  |  |  |  |
| Cn1c2ccccc2n2c(=O)c(-c3ccc(Cl)cc3)nnc12 | > 100 µM | > 100 µM |  | > 100 µM | > 100 µM | > 100 µM | > 100 µM | > 100 µM | > 100 µM |  |  |  |  |  |  |  |
| COC(=O)C12CCCN1CCC2 | > 100 µM | > 100 µM | > 100 µM |  | > 100 µM | > 100 µM | > 100 µM | > 100 µM | > 100 µM |  |  |  |  |  |  |  |
| CC(C)(C)OC(=O)C1C(=O)NC(=O)CC1C(OCc1ccccc1)C(OCc1ccccc1)C(COCc1ccccc1)OCc1ccccc1 (stereo not given) | > 100 µM | > 100 µM |  | > 100 µM | > 100 µM | > 100 µM |  | > 100 µM | > 100 µM | > 100 µM and 48.1 µM |  |  |  |  | 33.2 µM and 14.4 µM |  |
| CC1OC1C(=O)P(=O)(O)O (stereo not given) |  | > 100 µM | > 100 µM | > 100 µM | > 100 µM | > 100 µM | > 100 µM | > 100 µM |  |  |  |  |  |  |  |  |
| CCOC(=O)N1CCC2(CC1)C[C@](Sc1ccccc1)(C(C)=O)[C@H](C)O2 | > 100 µM |  | > 100 µM | > 100 µM | > 100 µM | > 100 µM | > 100 µM | > 100 µM | > 100 µM |  |  |  |  |  |  |  |
| COc1cc(OC)c(-n2[nH]c(=O)n(C)c2=O)c(OC)c1 | > 100 µM | > 100 µM |  | > 100 µM | > 100 µM | > 100 µM | > 100 µM | > 100 µM | > 100 µM |  |  |  |  |  |  |  |
| CN(C)CC1CCC/C(=C\c2ccc(Cl)c(Cl)c2)C1=O (stereo not given) | 3.42 µM | 3.96 µM | 26.8 µM | 12.1 µM | 12.7 µM | 37.4 µM | 16.8 µM | 22.8 µM |  |  |  |  |  |  |  |  |
| COc1cc2c(c3nc4ccccc4nc13)-c1ccc(SC)c(=O)cc1[C@@H](NC(C)=O)CC2 | > 100 µM | > 100 µM | > 100 µM | 0.528 µM |  | > 100 µM | > 100 µM | 53 µM | > 100 µM |  |  |  |  |  |  |  |
